Where two headings read alike, the source gives them in different places.
Columns and labels:
[1] = Determination of percent of compound bound to plasma (equilibrium dialysis); type: in vitro ADME; details: human
Text: Sample vials were weighed and recorded.

CYP3A4 = molecular target: T1, CYP3A4 (Homo sapiens, UniProt P08684); test: Cytochrome P450 inhibition, CYP3A4 (midazolam and testosterone); type: in vitro ADME
T1 construct: from tissue; host or cells: human liver microsomes

[2] = Rat pharmacokinetics, 1 mg/kg IV infusion and 5.0 mg/kg PO; type: in vivo
Procedure: Pharmacokinetics of Test Compounds following a 1 mg/kg IV infusion and 5.0 mg/kg PO dose in rats
For IV administration the test compound was formulated in 60:40 PEG 400:water with 1 equivalent HCl at 0.5 mg/mL. […] For PO (oral) administration, the test compound was formulated in 5/75/10/10 ethanol/PG/solutol/water at 2.5 mg/mL.
IV and PO dosing groups each consisted of 3 male SD rats. […] The animals were fasted overnight prior to dose administration and up to 4 hr after dosing.
For the IV infusion group, the test compound was administered by intravenous infusion over 30 minutes. The rate of infusion was adjusted according to the body weight of each animal to deliver a dose of 1 mg/kg at 2 mL/kg. For the oral dosing group, the test article was administered by oral gavage at 2 mL/kg for a dose of 5.0 mg/kg.
Serial venous blood samples (approximately 0.4 mL each) were taken at specified time points after dosing from each animal. The blood samples were collected into Vacutainer™ tubes (Becton-Disckinson Corp, N.J., USA) containing EDTA as the anti-coagulant and were immediately placed on wet ice pending centrifugation for plasma.
An LC/MS/MS method was used to measure the concentration of test compound in plasma.
Non-compartmental pharmacokinetic analysis was performed on the plasma concentration-time data.

[3] = pH 7.4, fraction unbound, comparative table, read-out: fu

T1 sequence (P08684 whole entry): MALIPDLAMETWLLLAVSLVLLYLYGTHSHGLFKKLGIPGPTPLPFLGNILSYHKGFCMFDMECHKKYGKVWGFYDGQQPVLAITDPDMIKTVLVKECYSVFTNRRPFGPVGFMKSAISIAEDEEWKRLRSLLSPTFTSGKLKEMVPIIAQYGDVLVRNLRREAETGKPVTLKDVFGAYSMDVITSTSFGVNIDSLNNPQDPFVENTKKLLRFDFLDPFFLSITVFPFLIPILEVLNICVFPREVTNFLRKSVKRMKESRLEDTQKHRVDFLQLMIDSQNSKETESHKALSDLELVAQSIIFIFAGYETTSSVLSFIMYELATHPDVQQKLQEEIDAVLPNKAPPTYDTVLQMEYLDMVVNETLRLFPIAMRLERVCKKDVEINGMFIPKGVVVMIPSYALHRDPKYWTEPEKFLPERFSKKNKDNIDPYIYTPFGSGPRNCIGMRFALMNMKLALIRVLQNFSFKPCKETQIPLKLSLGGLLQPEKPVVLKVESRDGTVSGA

Row | fraction unbound at 3 h, 2 μM [1, 3] | CYP3A4 IC50/PBAdj.EC50 value of compound of formula (I) higher than that of the named compound (CYP3A4) [times] | number of times the compound of formula (I) shows an improvement over the indicated compound: Cyp3A4 IC50 (TST) (CYP3A4) | IC50 (CYP3A4; testosterone substrate, comparative table, read-out: Cyp3A4 IC50 Testesterone (TST))) [µM] | clearance ([2]; male, SD, rat, plasma, intravenous, 1 mg/kg, rats) [mL/min/kg] | Vd ([2]; male, SD, rat, plasma, intravenous, 1 mg/kg, rats, read-out: Vss) [L/kg] | bioavailability ([2]; male, SD, rat, plasma, rats, 5.0 mg/kg PO, read-out: oral bioavailability (% F)) [%] | half-life ([2]; male, SD, rat, plasma, rats, read-out: t½ (converted)) [h] | number of times the compound of formula (I) shows an improvement over the indicated compound: % F in rats ([2]; rat, in vivo) | number of times the compound of formula (I) shows an improvement over the indicated compound: CL in rats ([2]; rat, in vivo) | number of times the compound of formula (I) shows an improvement over the indicated compound: t½ in rats ([2]; rat, in vivo) | number of times the compound of formula (I) shows an improvement over the indicated compound: Vss in rats ([2]; rat, in vivo) | t½ ([2]; rats) [h] | fraction unbound at 3 h, 2 μM ([1]; pH 7.4, human plasma, 2 uM, 3 hours at 37 C, read-out: percent unbound) | Compound
1 | 0.032 | 92 | (2.8X) | 4 | 6.5 | 0.54 | 50 | 1.3 | (1.5X) | (3.6X) | (3.9X) |  |  |  | Cc1ccc(C(=O)Nc2cccc(-c3nncn3C(C)C)n2)cc1-n1cnc(C2CC2)c1 [Compound B]
2 | 0.048 | 43 | (10X) |  |  |  |  |  | (6.8X) | (2.7X) | (8.6X) | (3.2X) | 0.59 |  | CC(C)n1cnnc1-c1cccc(NC(=O)c2cccc(-n3cnc(C4CC4)c3)c2)n1 [Compound A]
3 | 0.12 |  |  |  |  |  |  |  |  |  |  |  |  | 0.119 | Cc1cc(F)c(C(=O)Nc2cccc(-c3nncn3C(C)C)n2)cc1-n1cnc(C2CC2)c1 [compound of formula (I), 5-(4-cyclopropyl-1H-imidazol-1-yl)—N-(6-(4-isopropyl-4H-1,2,4-triazol-3-yl)pyridin-2-yl)-2-fluoro-4-methylbenzamide]

Reference: patent US20180099950A1, “APOPTOSIS SIGNAL-REGULATING KINASE INHIBITOR” (Gilead Sciences, Inc., priority 2012, published 2018)
